Laboratory results published in ChEMBL document CHEMBL4725310, “Orally bioavailable HCV NS5A inhibitors of unsymmetrical structural class” (Bioorg Med Chem Lett, 2020).
Values after ≈ are worked out from the molar mass of the structure shown.

Key:
Nonstructural protein 5A [1] = biological target: T1, Nonstructural protein 5A (Hepatitis C virus, UniProt Q5L478); assay: Inhibition of Hepatitis C virus 1b NS5A; set-up: species or system Hepatitis C virus subtype 1b
T1 sequence (Q5L478 whole entry): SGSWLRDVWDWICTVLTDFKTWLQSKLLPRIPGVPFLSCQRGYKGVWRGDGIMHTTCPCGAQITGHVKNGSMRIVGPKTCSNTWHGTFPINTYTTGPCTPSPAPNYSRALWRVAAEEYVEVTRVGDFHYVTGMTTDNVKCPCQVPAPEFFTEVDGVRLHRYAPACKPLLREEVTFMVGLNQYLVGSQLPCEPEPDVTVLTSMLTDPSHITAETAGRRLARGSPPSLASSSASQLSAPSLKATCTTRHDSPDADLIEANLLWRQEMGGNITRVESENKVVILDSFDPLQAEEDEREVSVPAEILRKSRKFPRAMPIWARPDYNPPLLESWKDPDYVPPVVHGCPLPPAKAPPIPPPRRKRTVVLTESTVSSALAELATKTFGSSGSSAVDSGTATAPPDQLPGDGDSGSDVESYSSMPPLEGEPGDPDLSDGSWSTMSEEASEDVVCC

Nonstructural protein 5A [2] = biological target: T1, Nonstructural protein 5A; assay: Inhibition of Hepatitis C virus 1a NS5A; set-up: species or system Hepatitis C virus subtype 1a
[3] = Apparent permeability of compound in human Caco-2 cells; type: ADME, cell-based
[4] = Solubility of compound in JP 1st fluid at pH 1.2; type: physicochemical
[5] = Oral bioavailability in Sprague-Dawley rat at 3 mg/kg; type: ADME, organism-based; details: in vivo
Nonstructural protein 5A [6] = biological target: Nonstructural protein 5A (Hepatitis C virus, UniProt Q5L478, Q30E); assay: Inhibition of Hepatitis C virus 1a NS5A Q30E mutant; set-up: species or system Hepatitis C virus subtype 1a
Nonstructural protein 5A [7] = biological target: T1, Nonstructural protein 5A; assay: Inhibition of Hepatitis C virus 3a NS5A; set-up: species or system Hepatitis C virus subtype 3a
Nonstructural protein 5A [8] = biological target: T1, Nonstructural protein 5A; assay: Inhibition of Hepatitis C virus 2a NS5A; set-up: species or system Hepatitis C virus subtype 2a
[9] = Inhibition of Hepatitis C virus 1a NS5A Q30K mutant; set-up: species or system Hepatitis C virus subtype 1a
Nonstructural protein 5A [10] = biological target: T1, Nonstructural protein 5A; assay: Inhibition of Hepatitis C virus 1a NS5A Q30R mutant; set-up: species or system Hepatitis C virus subtype 1a
Nonstructural protein 5A [11] = biological target: T1, Nonstructural protein 5A; assay: Inhibition of Hepatitis C virus 1a H77 NS5A; set-up: species or system Hepatitis C virus subtype 1a

CC#CCOC(=O)N[C@@H]1CCN(C(=O)N[C@@H](C(=O)N2CCC[C@H]2c2nc(-c3ccc([C@H]4CC[C@H](NC(=O)c5cnccn5)CC4)cc3)c[nH]2)c2ccccc2)C1
EC50 (Nonstructural protein 5A [1]): 0.028 nM | EC50 (Nonstructural protein 5A [2]): 2.1 nM | Papp [3]: 21 nm/s | solubility [4]: 462 µM (≈ 350 µg/mL)

COC1CCC(C(=O)N[C@H]2CC[C@H](c3ccc(-c4c[nH]c([C@@H]5CCCN5C(=O)[C@H](NC(=O)N5CC[C@@H](NC(=O)OCC6CCCCC6)C5)c5ccccc5)n4)cc3)CC2)CC1 (stereo not given in full)
EC50 (Nonstructural protein 5A [1]): 0.016 nM | EC50 (Nonstructural protein 5A [2]): 0.039 nM | Papp [3]: 2.3 nm/s | solubility [4]: 108 µM (≈ 90.3 µg/mL)

CCCCCOC(=O)N[C@@H]1CCN(C(=O)N[C@@H](C(=O)N2CCC[C@H]2c2nc(-c3ccc([C@H]4CC[C@H](NC(=O)c5cnccn5)CC4)cc3)c[nH]2)c2ccccc2)C1
EC50 (Nonstructural protein 5A [1]): 0.0056 nM | EC50 (Nonstructural protein 5A [2]): 0.97 nM | bioavailability [5]: 11% | Papp [3]: 30 nm/s | solubility [4]: 197 µM (≈ 153 µg/mL)

CC(C)(C)C#CCOC(=O)N[C@@H]1CCN(C(=O)N[C@@H](C(=O)N2CCC[C@H]2c2nc(-c3ccc([C@H]4CC[C@H](NC(=O)c5cnccn5)CC4)cc3)c[nH]2)c2ccccc2)C1
EC50 (Nonstructural protein 5A [1]): < 0.01 nM | EC50 (Nonstructural protein 5A [2]): 0.13 nM | bioavailability [5]: 5.3% | Papp [3]: 11 nm/s | solubility [4]: 142 µM (≈ 114 µg/mL)

CC(C)C#CCOC(=O)N[C@@H]1CCN(C(=O)N[C@@H](C(=O)N2CCC[C@H]2c2nc(-c3ccc([C@H]4CC[C@H](NC(=O)c5cnccn5)CC4)cc3)c[nH]2)c2ccccc2)C1
EC50 (Nonstructural protein 5A [1]): < 0.01 nM | EC50 (Nonstructural protein 5A [2]): 0.18 nM | bioavailability [5]: 10% | Papp [3]: 16 nm/s | solubility [4]: 246 µM (≈ 193 µg/mL)

COC1CCC(C(=O)N[C@H]2CC[C@H](c3ccc(-c4c[nH]c([C@@H]5CCCN5C(=O)[C@H](NC(=O)N5CC[C@@H](NC(=O)OCc6ccccc6)C5)c5ccccc5)n4)cc3)CC2)CC1 (stereo not given in full)
EC50 (Nonstructural protein 5A [1]): 0.019 nM | EC50 (Nonstructural protein 5A [2]): 0.17 nM | bioavailability [5]: 1.4% | Papp [3]: < 1 nm/s | solubility [4]: 193 µM (≈ 160 µg/mL)

CCCC#CCOC(=O)N[C@@H]1CCN(C(=O)N[C@@H](C(=O)N2CCC[C@H]2c2nc(-c3ccc([C@H]4CC[C@H](NC(=O)c5cnccn5)CC4)cc3)c[nH]2)c2ccccc2)C1
EC50 (Nonstructural protein 5A [1]): 0.013 nM | EC50 (Nonstructural protein 5A [2]): 0.27 nM | Papp [3]: 17 nm/s | solubility [4]: 135 µM (≈ 106 µg/mL)

COC1CCN(C(=O)N[C@H]2CC[C@H](c3ccc(-c4c[nH]c([C@@H]5CCCN5C(=O)[C@H](NC(=O)N5CC[C@@H](NC(=O)OCc6ccccc6)C5)c5ccccc5)n4)cc3)CC2)CC1
EC50 (Nonstructural protein 5A [1]): 0.041 nM | EC50 (Nonstructural protein 5A [2]): 0.15 nM | Papp [3]: < 1 nm/s | solubility [4]: 222 µM (≈ 184 µg/mL)

CC(C)C#CCOC(=O)N[C@@H]1CCN(C(=O)N[C@@H](C(=O)N2CCC[C@H]2c2nc(-c3ccc([C@H]4CC[C@H](NC(=O)c5cnc(CO)cn5)CC4)cc3)c[nH]2)c2ccccc2)C1
EC50 (Nonstructural protein 5A [1]): 0.017 nM | EC50 (Nonstructural protein 5A [2]): 0.12 nM | bioavailability [5]: 18% | Papp [3]: 14 nm/s | solubility [4]: 190 µM (≈ 155 µg/mL)

CC#CCCOC(=O)N[C@@H]1CCN(C(=O)N[C@@H](C(=O)N2CCC[C@H]2c2nc(-c3ccc([C@H]4CC[C@H](NC(=O)c5cnccn5)CC4)cc3)c[nH]2)c2ccccc2)C1
EC50 (Nonstructural protein 5A [1]): < 0.01 nM | EC50 (Nonstructural protein 5A [2]): 3.4 nM | Papp [3]: 21 nm/s | solubility [4]: 352 µM (≈ 272 µg/mL)

CC(C)(C)C#CCOC(=O)N[C@@H]1CCN(C(=O)N[C@@H](C(=O)N2CCC[C@H]2c2nc(-c3ccc([C@H]4CC[C@H](NC(=O)c5cnc(CO)cn5)CC4)cc3)c[nH]2)c2ccccc2)C1
EC50 (Nonstructural protein 5A [1]): 0.013 nM | EC50 (Nonstructural protein 5A [2]): 0.059 nM | bioavailability [5]: 32% | Papp [3]: 10 nm/s | EC50 (Nonstructural protein 5A [6]): 15 nM | EC50 (Nonstructural protein 5A [7]): < 0.01 nM | EC50 (Nonstructural protein 5A [8]): < 0.01 nM | EC50 [9]: 17 nM | EC50 (Nonstructural protein 5A [10]): 0.18 nM | solubility [4]: 132 µM (≈ 110 µg/mL)

COC(=O)N[C@H](C(=O)N1CCC[C@H]1c1ncc(-c2ccc(-c3ccc(-c4cnc([C@@H]5CCCN5C(=O)[C@@H](NC(=O)OC)C(C)C)[nH]4)cc3)cc2)[nH]1)C(C)C [DACLATASVIR]
EC50 (Nonstructural protein 5A [11]): 0.05 nM | EC50 (Nonstructural protein 5A [6]): 1260 nM | EC50 (Nonstructural protein 5A [7]): 0.146 nM | EC50 (Nonstructural protein 5A [8]): 0.071 nM | EC50 [9]: 1230 nM | EC50 (Nonstructural protein 5A [10]): 61 nM

CCC#CCOC(=O)N[C@@H]1CCN(C(=O)N[C@@H](C(=O)N2CCC[C@H]2c2nc(-c3ccc([C@H]4CC[C@H](NC(=O)c5cnccn5)CC4)cc3)c[nH]2)c2ccccc2)C1
EC50 (Nonstructural protein 5A [1]): 0.018 nM | EC50 (Nonstructural protein 5A [2]): 0.39 nM | Papp [3]: 31 nm/s | solubility [4]: 336 µM (≈ 259 µg/mL)

O=C(N[C@@H]1CCN(C(=O)N[C@@H](C(=O)N2CCC[C@H]2c2nc(-c3ccc([C@H]4CC[C@H](NC(=O)c5cnccn5)CC4)cc3)c[nH]2)c2ccccc2)C1)OCC1CCCCC1
EC50 (Nonstructural protein 5A [1]): 0.0065 nM | EC50 (Nonstructural protein 5A [2]): 0.35 nM | bioavailability [5]: 4.9% | Papp [3]: 8.5 nm/s | solubility [4]: 76 µM (≈ 61 µg/mL)
